Read-outs that look alike come from different tables or passages of the source.
Columns and labels:
[1] = Capsaicin solubilization experiments with varying Tween 80, visual assessment; assay type: physicochemical; conditions: capsaicin at 0.05-0.055% concentration
Text: Therefore, it was decided to evaluate the use of the concentrated capsaicin (a white powder) as a replacement for the oily oleoresin capsicum extract. However, as capsaicin powder is hydrophobic it was necessary to determine what quantity of surfactant was necessary to maintain the capsaicin in solution. A study was therefore conducted to determine the required concentration of a chosen surfactant (Tween 80) to achieve and maintain complete dissolution of the capsaicin (assuming a capsaicin concentration of 0.054% w/v). In other words, the level of surfactant required for dissolving the capsaicin in an aqueous vehicle was determined as described below.
A series of experiments were undertaken to prepare various samples with the addition of a set quantity of capsaicin powder (equivalent to 0.05% in solution) and varying concentrations of Tween 80.
Sample 1: 1% Tween 80 was prepared according to the following protocol: […]; Tween 80; […]; and 10 mL stock solution. The sample was sonicated for 2 minutes and then visually assessed. […]
Sample 2: 0.5% Tween 80 was prepared according to the following protocol: […] Tween 80; 0.011 g capsaicin; and 10 mL stock solution. The sample was sonicated for 2 minutes and then visually assessed. […]
All samples were left overnight and visually assessed again on the following day. […]

[2] = cited from earlier work

SMILES: COc1cc(CNC(=O)CCCC/C=C/C(C)C)ccc1O [capsaicin]
- required concentration of Tween 80 in the stock solution to achieve complete dissolution of capsaicin [1]: 0.5 % w/v

SMILES: NC(=O)CC[C@@H]1NC(=O)[C@H](Cc2ccccc2)NC(=O)[C@H](Cc2ccc(O)cc2)NC(=O)CCSSC[C@@H](C(=O)N2CCC[C@H]2C(=O)N[C@H](CCCN=C(N)N)C(=O)NCC(N)=O)NC(=O)[C@H](CC(N)=O)NC1=O [desmopressin]
- bio-availability of the nasal spray formulation relative to the nasal drop formulation ([2]; in vivo): two to three times higher

SMILES: CCC(=O)O[C@]1(C(=O)SCF)[C@H](C)C[C@H]2[C@@H]3C[C@H](F)C4=CC(=O)C=C[C@]4(C)[C@@]3(F)[C@@H](O)C[C@@]21C [fluticasone propionate]
- bio-availability of the nasal spray formulation relative to the nasal drop formulation ([2]; intranasal administration): about eight times higher
